According to ChEMBL document CHEMBL1201862, “PubChem BioAssay data set” (2004):
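Test compounds were applied to cells in 96-well plates for 48 hours at 5 doses. At the GI50, growth is halved.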 Activity calls are given as the source filed them. Rule as the data show it: active = GI50 up to about 1.1 µM and inactive = higher.

Tests used:
Experiment in all cases: DTP human tumour cell line panel, 48 h
NCI-H522 = tested on: NCI-H522
K562 = tested on: K562
UACC-62 = tested on: UACC-62
ACHN = tested on: ACHN
MOLT-4 = tested on: MOLT-4
UACC-257 = tested on: UACC-257
Hs-578T = tested on: Hs-578T
CAKI-1 = tested on: CAKI-1
HCT-116 = tested on: HCT-116
COLO 205 = tested on: COLO 205
SF-268 = tested on: SF-268
OVCAR-4 = tested on: OVCAR-4
OVCAR-3 = tested on: OVCAR-3
SK-MEL-5 = tested on: SK-MEL-5
SK-MEL-28 = tested on: SK-MEL-28
MCF7 = tested on: MCF7
HT-29 = tested on: HT-29
OVCAR-8 = tested on: OVCAR-8
SNB-75 = tested on: SNB-75
SF-295 = tested on: SF-295
HCT-15 = tested on: HCT-15
SF-539 = tested on: SF-539
MDA-MB-435 = tested on: MDA-MB-435
SK-OV-3 = tested on: SK-OV-3
NCI-H226 = tested on: NCI-H226
NCI/ADR-RES = tested on: NCI/ADR-RES
EKVX = tested on: EKVX
A549 = tested on: A549
RPMI-8226 = tested on: RPMI-8226
Malme-3M = tested on: Malme-3M
CCRF-CEM = tested on: CCRF-CEM
TK-10 = tested on: TK-10
LOX IMVI = tested on: LOX IMVI
SW-620 = tested on: SW-620
786-0 = tested on: 786-0
SR = tested on: SR
NCI-H23 = tested on: NCI-H23
OVCAR-5 = tested on: OVCAR-5
UO-31 = tested on: UO-31
SNB-19 = tested on: SNB-19
DU-145 = tested on: DU-145
U-251 = tested on: U-251
M14 = tested on: M14
MDA-N = tested on: MDA-N
SK-MEL-2 = tested on: SK-MEL-2
PC-3 = tested on: PC-3
BT-549 = tested on: BT-549
SN12C = tested on: SN12C
RXF 393 = tested on: RXF 393
T47D = tested on: T47D
HL-60 = tested on: HL-60
KM12 = tested on: KM12
HCC 2998 = tested on: HCC 2998
NCI-H460 = tested on: NCI-H460
A498 = tested on: A498
MDA-MB-231 = tested on: MDA-MB-231
HOP-92 = tested on: HOP-92
HOP-62 = tested on: HOP-62
IGROV-1 = tested on: IGROV-1

CCN(CC)C(=O)N1CN(c2ccccc2)C2(CCN(CCCSc3ccc(F)cc3)CC2)C1=O
GI50 (NCI-H522): 13.2 µM (inactive) | GI50 (K562): 8.32 µM (inactive) | GI50 (UACC-62): > 10 µM (inactive) | GI50 (ACHN): 3.01 µM (inactive) | GI50 (MOLT-4): 3.25 µM (inactive) | GI50 (UACC-257): 3.32 µM (inactive) | GI50 (Hs-578T): 2.79 µM (inactive) | GI50 (CAKI-1): 87.7 µM (inactive) | GI50 (HCT-116): 2.58 µM (inactive) | GI50 (COLO 205): 1.92 µM (inactive) | GI50 (SF-268): 11.1 µM (inactive) | GI50 (OVCAR-4): 6.75 µM (inactive) | GI50 (OVCAR-3): 5.13 µM (inactive) | GI50 (SK-MEL-5): 3.66 µM (inactive) | GI50 (SK-MEL-28): 18.4 µM (inactive) | GI50 (MCF7): 4.19 µM (inactive) | GI50 (HT-29): 2.85 µM (inactive) | GI50 (OVCAR-8): 15.1 µM (inactive) | GI50 (SNB-75): 20.6 µM (inactive) | GI50 (SF-295): 12.1 µM (inactive) | GI50 (HCT-15): 11 µM | GI50 (SF-539): 8.34 µM (inactive) | GI50 (MDA-MB-435): 12.8 µM (inactive) | GI50 (SK-OV-3): 19 µM (inactive) | GI50 (NCI-H226): 18.9 µM (inactive) | GI50 (NCI/ADR-RES): 21.2 µM (inactive) | GI50 (EKVX): 3.93 µM (inactive) | GI50 (A549): 18.8 µM (inactive) | GI50 (RPMI-8226): 5.81 µM (inactive) | GI50 (Malme-3M): 15.9 µM (inactive) | GI50 (CCRF-CEM): 4.2 µM (inactive) | GI50 (TK-10): 10.3 µM (inactive) | GI50 (LOX IMVI): 2.84 µM (inactive) | GI50 (SW-620): 6.75 µM (inactive) | GI50 (786-0): 12.8 µM (inactive) | GI50 (SR): 3.8 µM (inactive) | GI50 (NCI-H23): 7.83 µM (inactive) | GI50 (OVCAR-5): 14.3 µM (inactive) | GI50 (UO-31): 7.19 µM (inactive) | GI50 (SNB-19): 9.79 µM (inactive) | GI50 (DU-145): 5.14 µM (inactive) | GI50 (U-251): 11.9 µM (inactive) | GI50 (M14): 3.56 µM (inactive) | GI50 (MDA-N): 6.15 µM (inactive) | GI50 (SK-MEL-2): 7.16 µM (inactive) | GI50 (PC-3): 6.56 µM (inactive) | GI50 (BT-549): 13.5 µM (inactive) | GI50 (SN12C): 9.18 µM (inactive) | GI50 (RXF 393): 16.2 µM (inactive) | GI50 (T47D): 4.01 µM (inactive) | GI50 (HL-60): 5.37 µM (inactive) | GI50 (KM12): 10.2 µM (inactive)

COc1cccc(N2CCc3c(C)c(C#N)c4nc5ccccc5n4c32)c1
GI50 (NCI-H522): 15.3 µM (inactive) | GI50 (K562): > 100 µM (inactive) | GI50 (UACC-62): > 100 µM (inactive) | GI50 (ACHN): > 100 µM (inactive) | GI50 (UACC-257): > 100 µM (inactive) | GI50 (Hs-578T): 16.2 µM (inactive) | GI50 (HCT-116): > 100 µM (inactive) | GI50 (COLO 205): > 100 µM (inactive) | GI50 (SF-268): 43.7 µM (inactive) | GI50 (OVCAR-4): > 100 µM (inactive) | GI50 (OVCAR-3): > 100 µM (inactive) | GI50 (SK-MEL-5): > 100 µM (inactive) | GI50 (SK-MEL-28): > 100 µM (inactive) | GI50 (MCF7): > 100 µM (inactive) | GI50 (HT-29): > 100 µM (inactive) | GI50 (OVCAR-8): 41.4 µM (inactive) | GI50 (SNB-75): 41.5 µM (inactive) | GI50 (HCC 2998): > 100 µM (inactive) | GI50 (SF-295): > 100 µM (inactive) | GI50 (HCT-15): > 100 µM | GI50 (SF-539): 45.7 µM (inactive) | GI50 (MDA-MB-435): > 100 µM (inactive) | GI50 (SK-OV-3): 48.1 µM (inactive) | GI50 (NCI-H226): > 100 µM (inactive) | GI50 (NCI-H460): > 100 µM (inactive) | GI50 (NCI/ADR-RES): > 100 µM (inactive) | GI50 (A549): > 100 µM (inactive) | GI50 (A498): > 100 µM (inactive) | GI50 (Malme-3M): > 100 µM (inactive) | GI50 (MDA-MB-231): 12.2 µM (inactive) | GI50 (CCRF-CEM): > 100 µM (inactive) | GI50 (TK-10): > 100 µM (inactive) | GI50 (LOX IMVI): > 100 µM (inactive) | GI50 (SW-620): > 100 µM (inactive) | GI50 (786-0): 58.3 µM (inactive) | GI50 (NCI-H23): > 100 µM (inactive) | GI50 (OVCAR-5): > 100 µM (inactive) | GI50 (UO-31): > 100 µM (inactive) | GI50 (SNB-19): 39.3 µM (inactive) | GI50 (DU-145): > 100 µM (inactive) | GI50 (U-251): 53.6 µM (inactive) | GI50 (M14): > 100 µM (inactive) | GI50 (MDA-N): > 100 µM (inactive) | GI50 (SK-MEL-2): 94.8 µM (inactive) | GI50 (PC-3): > 100 µM (inactive) | GI50 (HOP-92): 22.1 µM (inactive) | GI50 (HOP-62): > 100 µM (inactive) | GI50 (BT-549): > 100 µM (inactive) | GI50 (SN12C): > 100 µM (inactive) | GI50 (RXF 393): 45.1 µM (inactive) | GI50 (HL-60): > 100 µM (inactive) | GI50 (IGROV-1): > 100 µM (inactive)

O=S(=O)(c1ccccc1)C(c1ccc2ccccc2n1)S(=O)(=O)c1ccccc1
GI50 (NCI-H522): 90.2 µM (inactive) | GI50 (K562): > 100 µM (inactive) | GI50 (ACHN): > 100 µM (inactive) | GI50 (MOLT-4): > 100 µM (inactive) | GI50 (UACC-257): > 100 µM (inactive) | GI50 (Hs-578T): > 100 µM (inactive) | GI50 (CAKI-1): > 100 µM (inactive) | GI50 (HCT-116): > 100 µM (inactive) | GI50 (COLO 205): > 100 µM (inactive) | GI50 (SF-268): > 100 µM (inactive) | GI50 (OVCAR-4): 55.6 µM (inactive) | GI50 (OVCAR-3): > 100 µM (inactive) | GI50 (SK-MEL-5): > 100 µM (inactive) | GI50 (SK-MEL-28): > 100 µM (inactive) | GI50 (MCF7): > 100 µM (inactive) | GI50 (HT-29): > 100 µM (inactive) | GI50 (OVCAR-8): > 100 µM (inactive) | GI50 (SNB-75): > 100 µM (inactive) | GI50 (HCC 2998): 48.5 µM (inactive) | GI50 (SF-295): > 100 µM (inactive) | GI50 (HCT-15): > 100 µM | GI50 (SF-539): > 100 µM (inactive) | GI50 (MDA-MB-435): > 10 µM (inactive) | GI50 (NCI-H226): > 100 µM (inactive) | GI50 (NCI-H460): > 100 µM (inactive) | GI50 (NCI/ADR-RES): > 100 µM (inactive) | GI50 (EKVX): > 100 µM (inactive) | GI50 (A549): > 100 µM (inactive) | GI50 (RPMI-8226): > 100 µM (inactive) | GI50 (A498): > 100 µM (inactive) | GI50 (Malme-3M): > 100 µM (inactive) | GI50 (MDA-MB-231): > 100 µM (inactive) | GI50 (TK-10): > 100 µM (inactive) | GI50 (LOX IMVI): > 100 µM (inactive) | GI50 (SW-620): > 100 µM (inactive) | GI50 (786-0): > 100 µM (inactive) | GI50 (SR): > 100 µM (inactive) | GI50 (NCI-H23): > 100 µM (inactive) | GI50 (OVCAR-5): > 100 µM (inactive) | GI50 (UO-31): > 100 µM (inactive) | GI50 (SNB-19): > 100 µM (inactive) | GI50 (DU-145): > 100 µM (inactive) | GI50 (U-251): > 100 µM (inactive) | GI50 (MDA-N): > 100 µM (inactive) | GI50 (PC-3): > 100 µM (inactive) | GI50 (HOP-92): > 100 µM (inactive) | GI50 (HOP-62): 78 µM (inactive) | GI50 (BT-549): > 100 µM (inactive) | GI50 (SN12C): > 100 µM (inactive) | GI50 (RXF 393): > 100 µM (inactive) | GI50 (HL-60): > 100 µM (inactive) | GI50 (IGROV-1): > 100 µM (inactive) | GI50 (KM12): > 100 µM (inactive)
